Data published in patent US20100323984A1, “COSMETIC ORAL AND/OR PARENTERAL USE OF GLUCOSAMINE OPTIONALLY IN COMBINATION WITH AT LEAST ONE POLYPHENOL COMPOUND, AND CORRESPONDING COMPOSITION” (LABORATOIRES INNEOV, priority 2006, published 2010).
Structures can show the parent of a compound that is named as a salt.

Columns and labels:
[1] = system: CD44 hyaluronic acid receptor; assay: Immunohistochemical demonstration of the hyaluronic acid receptor (CD44) in human skin explants kept alive; type: cell-based; details: glucosamine 5 μM in culture medium, D4, scores 0 to 4, control skin 3.4 ± 0.7
Description: For this, a method of culturing was used which allows human skin to be kept alive under metabolic conditions close to in vivo (individuals aged between 50 and 60).
The glucosamine in aqueous solution was added to the culture medium, at the plasma concentration (5 μM), thus making it possible to simulate oral and/or parenteral administration.
Skin fragments were obtained after plastic surgery (mammary or abdominal plasties) from menopausal women (8 different donors from female individuals aged between 50 and 60). The fragments are placed in inserts which are themselves suspended above culture wells. Culture medium is added to the bottom of the wells, the medium passing by slow diffusion between the two compartments by means of a porous membrane (12 μm).
From D0 to D10, glucosamine was added to the culture medium of the skin fragments, every day. For the CD44 analysis, a series of skin samples was taken at D4. A second series was taken at D10 for assaying the collagen synthesis.
The immunodetection was carried out using the CSA kit (DAKO) and visualized in red with AEC (3-amino-9-ethylcarbazole).
Semi-quantitative scores made it possible to specify the intensity of the immunolabeling (scores 0 to 4, from negative to intense). […]

Human fibroblasts = assay: Cytotoxicity on fibroblasts (number of cells by DNA fluorimetry); type: cell-based; details: for DNA (number of cells): 48 h, control 2.37 ± 0.33
Description: (§1) Human fibroblasts, harvested by growth from skin explants from a normal young donor, are routinely cultured in DMEM containing 10% of fetal bovine serum (FCS), ascorbic acid (50 μg/ml), penicillin-streptomycin (100 U/ml), referred to in the rest of the report as DMEM-FCS. They are amplified in culture by trypsinizing subconfluent cultures and dividing the dishes 1 in 3. The cultures are used up until passage 14. They are regularly tested for the absence of mycoplasma.
(§2) The glucosamine sulfate is provided in the form of (C6H14NO5)2 S04.2KCl (glucosamine.SO4 titer: 74%) brand Bioiberica, code F0379, Batch 4/0001. A stock solution at 13.6 mg/ml of distilled water is sterilized by filtration through an Acrodisc, and conserved at −20° C.
The fibroblasts are seeded into 24-well multiwells at 25 or 50×10^3 cells/well in DMEM-FCS. After 6 h of attachment, 20 μl of gradual dilutions of the active agents to be tested are added to the cultures. After 24 h of contact, the medium and the active agents are renewed. After 48 h of culture, the medium is removed, and the cell layers are rinsed twice with physiological saline. The number of cells is determined by measuring DNA by the fluorimetric technique using the bisbenzimide reagent in a “Gemini” fluorimeter. The cultures are prepared in triplicate and the measurements are carried out on each culture in duplicate. The control cultures receive the solvent alone.
The toxicity of glucosamine sulfate is tested at 0.5, 1, 5, 10, 20 and 40× the plasma concentration, i.e. 3.4, 6.8, 34, 68, 136 and 272 μg/ml of culture medium.

MMP3 = MMP3 mRNA by RT-PCR, human dermal fibroblasts in a monolayer on plastic; type: cell-based; details: for MMP3 mRNA: control 1745 ± 31
Description: as §1, §2
The fibroblasts are seeded in DMEM-FCS in a proportion of 2.10^5 cells/disk of 6 cm. After 18 h of attachment, the culture medium is renewed with DMEM-FCS containing:
a) glucosamine sulfate alone • [plasma concentration] 2×(n=2) • 5× (n=2) • 10× (n=2) • control (n=3)
The total amount of RNA present in the solution that will be used to carry out the specific mRNA measurements is determined by measuring the 28S ribosomal RNA. The RNA solution is aliquoted and frozen at −80° C. until the specific mRNAs are assayed by RT-PCR. The mRNA results are expressed in arbitrary units (AU) per unit of 28S. The measurements are carried out in triplicate on two or three separate cultures. • MMP3: stromelysin 1 responsible for the degradation of proteoglycans and of other extracellular matrix constituents and activator of MMP 1

fibroblasts = assay: Retracting collagen gel (contractile properties of fibroblasts); type: cell-based, human
Description: Human fibroblasts, harvested by growth from skin explants from a normal young donor, are routinely cultured in DMEM containing 10% of fetal bovine serum (FCS), ascorbic acid (50 μg/ml), penicillin-streptomycin (100 U/ml), referred to in the rest of the report as DMEM-FCS. They are amplified in culture by trypsinizing subconfluent cultures and dividing the dishes 1 in 3. The cultures are used up until passage 14. They are regularly tested for the absence of mycoplasma. A sterile solution of purified native collagen is mixed with a suspension of fibroblasts, DMEM-FCS medium and the test products in bacteriological dishes. The mixture is brought to 37° C., this resulting in polymerization of the collagen and the formation of a three-dimensional collagen gel trapping the fibroblasts and floating in the culture medium. The cells attached to the collagen fibers and, under the contractile activity of the cytoskeleton of the fibroblasts, the gel is gradually retracted. This gel is commonly referred to as “Retracting Collagen Gel” or RCG. […]

Vimentin = assay: Example 4 clinical study, skin biopsy mRNA by RT-PCR: vimentin; type: in vivo, human; details: oral, equivalent to 250 mg of glucosamine, 8 weeks, women aged 50 to 65, n=8; placebo 1.27 ± 0.33
Description: (§3) Restrictive randomized monocentric double-blind study versus placebo. Fifteen women, aged 50 to 65, were given, as a supplement, for 8 weeks, either a placebo (n=7) or glucosamine sulfate (n=8) equivalent to 250 mg of glucosamine (GLU).
(§4) A skin biopsy 3 mm in diameter (inner face of the arm) was taken before the beginning (T0) and at the end of the 8 weeks of supplementation (T8).
(§5) The total RNA contained in the skin samples was extracted and purified by means of an Ambion Ribo Pure Kit.
(§6) The analysis of the specific dermal markers was carried out by RT-PCR as previously described (Nusgens et al, JID, 116: 853-859, 2001). All the results are expressed in arbitrary units relative to the amount of 28S rRNA.
(§7) The effects of the supplementation (placebo or GLU) were then analyzed by comparing, for each volunteer, the individual expression of the mRNAs at T8 and at T0. A […] ratio was thus calculated. The means of each ratio of the two groups were compared using a Student's test for paired samples.

Decorin = assay: Example 4 clinical study, skin biopsy mRNA by RT-PCR: decorin; type: in vivo, human; details: oral, equivalent to 250 mg of glucosamine, 8 weeks, women aged 50 to 65, n=8; placebo 1.11 ± 0.22
Description: as §3, §4, §5, §6, §7

Fibromodulin = assay: Example 4 clinical study, skin biopsy mRNA by RT-PCR: fibromodulin; type: in vivo, human; details: oral, equivalent to 250 mg of glucosamine, 8 weeks, women aged 50 to 65, n=8; placebo 1.12 ± 0.16
Description: as §3, §4, §5, §6, §7

Biglycan = assay: Example 4 clinical study, skin biopsy mRNA by RT-PCR: biglycan; type: in vivo, human; details: oral, equivalent to 250 mg of glucosamine, 8 weeks, women aged 50 to 65, n=8; placebo 1.10 ± 0.18
Description: as §3, §4, §5, §6, §7

Hyaluron synthase = assay: Example 4 clinical study, skin biopsy mRNA by RT-PCR: hyaluron synthase; type: in vivo, human; details: oral, equivalent to 250 mg of glucosamine, 8 weeks, women aged 50 to 65, n=8; placebo 1.51 ± 0.73
Description: as §3, §4, §5, §6, §7

SMILES: N[C@@H](C=O)[C@@H](O)[C@H](O)[C@H](O)CO [glucosamine sulfate]
- CD44 labeling Topography score (mean semi-quantitative score) [1]: 3.7 ± 0.5
- number of cells (rate of proliferation of the fibroblasts) (Human fibroblasts; 34 μg/ml, p=0.04): increase in the number of cells
- DNA (number of cells) (Human fibroblasts; 0.5x plasma concentration, 3.4 μg/ml): 2.81 ± 0.41 µg/mL
- DNA (number of cells) (Human fibroblasts; 1x plasma concentration, 6.8 μg/ml): 2.56 ± 0.37 µg/mL
- DNA (number of cells) (Human fibroblasts; 5x plasma concentration, 34 μg/ml): 2.89 ± 0.23 µg/mL
- DNA (number of cells) (Human fibroblasts; 10x plasma concentration, 68 μg/ml): 2.61 ± 0.26 µg/mL
- DNA (number of cells) (Human fibroblasts; 20x plasma concentration, 136 μg/ml): 2.52 ± 0.18 µg/mL
- DNA (number of cells) (Human fibroblasts; 40x plasma concentration, 272 μg/ml): 2.50 ± 0.32 µg/mL
- cytotoxic effect (Human fibroblasts; even at concentrations representing 40× the plasma concentration): No cytotoxic effect
- MMP3 mRNA (MMP3; 2x plasma concentration): 1261 ± 120 UA/28S
- level of MMP3 mRNA (in words) (MMP3; 2x, 5x, 10x plasma concentration, p<0.005): significant reduction
- MMP3 mRNA (MMP3; 5x plasma concentration): 1162 ± 22 UA/28S
- MMP3 mRNA (MMP3; 10x plasma concentration): 1060 ± 375 UA/28S
- reduction in the diameter of the collagen gel (retraction) (fibroblasts; 2×, 5× and 10× the plasma concentration, 20 000 fibroblasts, 46 h, control 19 mm): 22 mm
- reduction in diameter of the collagen gel (fibroblasts; plasma concentration, 25 000 fibroblasts, 18 hours, controls 21 mm): 23 mm
- Vimentin mRNA (T8/T0) (Vimentin): significantly increases
- Decorin mRNA (T8/T0) (Decorin): significantly increases
- Fibromodulin mRNA (T8/T0) (Fibromodulin): significantly increases
- Biglycan mRNA (T8/T0) (Biglycan): significantly increases
- Hyaluron synthase mRNA (T8/T0) (Hyaluron synthase): significantly increases
